Experimental data published in patent US20220273751A1, “GPCR HETEROMER INHIBITORS AND USES THEREOF” (GPCR THERAPEUTICS, INC., priority 2019, published 2022).
Where a SMILES comes first, the peptide text is derived from it. Bridges are numbered along the chain shown (N, C = ends). [ ]: non-standard residue; d: D form. The star is where a group is joined. 2Nal = N[C@@H](Cc1ccc2ccccc2c1)C(=O)O; Lys(iPr) = CC(C)NCCCC[C@H](N)C(=O)O; Benzoyl(4-F) = O=C(c1ccc(F)cc1)*; Cit = NC(=O)NCCC[C@H](N)C(=O)O

Assays:
[1] = system: A549-CXCR4-ADRB2 cells; assay: Proliferation assay (Prestoblue), A549-CXCR4-ADRB2 cells; conditions: serum free, 72 hr; for block of CXCL12 effect on cell proliferation: FIGS. 18A-18E, 10 μM (AMD070 1 μM)
Description: A549 parent cells or A549-CXCR4-ADRB2 cells were plated at a density of 1×10^4 cells/well in 96-well plates and incubated in culture medium for 24 hr to allow adherence. […] At the end of incubation, cell proliferation was assessed by using Prestoblue Cell Viability Reagent (Thermo Fisher Scientific) according to the manufacture's instruction.
A549 double negative (RLuc-lucP) or A549-CXCR4-ADRB2 cell lines overexpressing both CXCR4 and ADRB2 plated at a density of 1×10^4 cells/well in 96-well plates and incubated in culture medium for 24 hr to allow adherence. After washing, Serum free RPMI1640±SDF-1α with or without indicated drugs were added and the cells were incubated for 72 hr (96 hr post seeding) at 37° C., 5% CO2. At the end of incubation, cell proliferation was assessed by using Prestoblue Cell Viability Reagent (Thermo Fisher Scientific, Cat. A13262) according to the manufacture's instruction. Briefly, cells were incubated in 1× Prestoblue Cell Viability Reagent for 1 hr at 37° C. Fluorescence was measured at 560 nm excitation and 590 nm emission using Varioskan LUX multimode microplate reader (Thermo Fisher Scientific). The amount of fluorescence detected was proportional to the number of cells within a well. Results are expressed as mean ratio (FluorescenceDrug/FluorescenceVehicle only) from triplicate wells±SEM.

[2] = molecular target: T1, CXCR4-ADRB2 heteromer (Homo sapiens, UniProt P07550+P61073); assay: Calcium mobilization assay, HL-60 cells endogenously expressing CXCR4 and ADRB2; type: cell-based; conditions: for decrease of IC50 of Ca2+ response upon co-treatment of carvedilol, HL-60: Carvedilol 10 μM
[3] = system: MDA-MB-231-CXCR4-ADRB2 cells; assay: MDA-MB-231-CXCR4-ADRB2 orthotopic xenograft, tumor growth; type: in vivo, mouse; conditions: FIG. 22C; for suppression of tumor growth, single administration: once a day for 4 weeks
Description: The size of the tumors was calculated by converting the tumor size to 100 on the first day of drug administration (% tumor growth). […] Place the needle point in the pre-administration site (between the nipple 2 and 3) and move it to the right or left to make a wide subcutaneous pocket. The Matrigel Mixture (matrigel: cell suspension=50:50) is injected into the subcutaneous pocket. The animals are placed in a breeding box after confirming that the liquid is not spilled at the injection site. […] The day of drug treatment is defined as Day 1. […] The size of the tumor was calculated by converting the tumor size to 100 on the first day of drug administration.

[4] = molecular target: T1, CXCR4-ADRB2 heteromer; assay: Calcium mobilization assay, U937 cells endogenously expressing CXCR4 and ADRB2; type: cell-based
[5] = molecular target: T1, CXCR4-ADRB2 heteromer; assay: Calcium mobilization assay, MDA-MB-231 cells co-transduced with CXCR4 and ADRB2; type: cell-based; conditions: for decrease of IC50 of Ca2+ response upon co-administration of Carvedilol / IC50: Table 4; for decrease of IC50 of Ca2+ response upon co-administration of Carvedilol: Carvedilol 600 nM; for IC50: IC50 of Ca2+ response
Description: The next day, the cells were co-transduced with 10 MOI of CXCR4 and 30 MOI of GPCRx. […] Calcium mobilizations were measured using FlexStation 3 Multi-Mode Microplate Reader. The results were normalized for base-line activity. Calcium mobilizations were quantified by calculating the area-under-the-curve (AUC) of each graph.
MDA-MB-231 cells were transduced with adenoviruses encoding CXCR4 only, or CXCR4 and ADRB2.
Calcium mobilization was measured using FlexStation3, and the resulting IC50 values of calcium response were calculated using GraphPad Prism software.
The next day, cells were co-transduced with 10 MOI of CXCR4 and 30 MOI of GPCRx. Adenoviruses encoding HA-VC were used to adjust the total amount of adenoviruses transduced. After 2 days, cells were treated with antagonist with indicated amounts and incubated with Cal 6 (FLIPR® Calcium 6 Assay Kit by Molecular Devices, Cat. R8191) for 2 hr. […] Calcium mobilization was measured using FlexStation 3 Multi-Mode Microplate Reader (Molecular Devices, Sunnyvale, Calif., USA). The results were normalized for base-line activity. […] Data represent three independent experiments (mean±SEM).

[6] = molecular target: T2, CXCR4 (Homo sapiens, UniProt P61073); assay: Calcium mobilization assay, MDA-MB-231 cells transduced with CXCR4 only; type: cell-based
T2 construct: expressed in transfected cells; host or cells: MDA-MB-231 (adenoviral transduction)
Description: The next day, cells were co-transduced with 10 MOI of CXCR4 and 30 MOI of GPCRx. Adenoviruses encoding HA-VC were used to adjust the total amount of adenoviruses transduced. After 2 days, cells were treated with antagonist with indicated amounts and incubated with Cal 6 (FLIPR® Calcium 6 Assay Kit by Molecular Devices, Cat. R8191) for 2 hr. […] The results were normalized for base-line activity. […] Data represent three independent experiments (mean±SEM).

[7] = system: patient derived cells (PDCs) from glioblastoma; assay: Survival of patient derived cells (ATPlite); type: cell-based, human; conditions: PDC expressing CXCR4 and ADRB2; 7 days
Description: Single cell suspensions of resected and dissociated glioblastoma tissues from patients were prepared (provided by Samsung Seoul hospital in Seoul, Korea). These cells were cultured under conditions optimal for propagation and non-differentiation of normal neuronal stem cell. Media were composed serum free Neurobasal media supplemented with basic FGF and EGF.
The effects of GPCRx antagonist on the survival of patient derived cells (PDCs) were assessed using ATPlite (PerkinElmer, Cat. No. 6016739 reagent). ATPlite is an Adenosine Triphospate monitoring system based on firefly luciferase. This luminescence assay is the alternative to colorimetric, fluorometric and radioisotopic assays for the quantitative evaluation of proliferation and cytotoxicity of cultured mammalian cells. Cells were seeded in 384-well plate at 500 cells/well in 40 μL culture media. After overnight growth, the cells were cultured for 7 days in the presence of several dose of GPCRx antagonist or DMSO alone. After a 7-day incubation, 15 μL ATPlite was added into the each well and the plate were shaken for 5 minutes in an orbital shaker at 700 rpm. The luminescent signal was detected within 30 minutes at PerkinElmer TopCount detection instrument. The cell viability was calculated using the equation: Cell viability (%)=(OD of antagonist treatment/OD of DMSO only treatment)×100%.

[8] = system: A549-CXCR4-ADRB2 cells; assay: A549-CXCR4-ADRB2 xenograft, tumor growth; type: in vivo, mouse; conditions: 10 mpk; in only 2 doses
Description: The antitumor effect in mice transplanted with A549 cells containing CXCR4-ADRB2 by stably overexpressing both CXCR4 and ADRB2 (“A549-CXCR4-ADRB2 cells”) was evaluated using CXCR4 inhibitors currently under development or on the market. A549-CXCR4-ADRB2 cells (1×10^7 cell/head) were injected subcutaneously in nude mice. […]. The CXCR4 inhibitors were administered once a day for 4 weeks.
Five week-old, female Balb/c-nu/nu mice were obtained from Envigo (France) and maintained in specific pathogen-free animal facility. All protocols for animal use and euthanasia were approved by the Qubest Bio (South Korea) Animal Experimental Ethics Committee based on the Animal Protection Act. […] The tumor growth was monitored every third or fourth day by measuring the length (L) and width (W) of the tumor with an electronic caliper and calculating tumor volume in the basis of the following formula: Volume=0.5 LW^2.
For the antitumor efficacy test using CXCR4 inhibitors, A549-CXCR4-ADRB2 cell line overexpressing CXCR4 and ADRB2 in A549, lung cancer cell line was subcutaneously administered (1×10^7 cell in 100 μL PBS/head) to BALB/c-nu. […] The tumor growth was monitored every third or fourth day by measuring the length (L) and width (W) of the tumor: Volume=0.5 LW^2.

[9] = system: ERK1/2; assay: Western blot of phospho-ERK1/2, MDA-MB-231 cell lines; type: cell-based, human; conditions: for ERK1/2 activation, single agonist: MDA-MB-231 parent, MDA-MB-231-CXCR4 and MDA-MB-231-CXCR4-ADRB2 cells, data not shown
Description: MDA-MB-231 cells and A549 cells, expressing Rluc-luc2P or CXCR4, or containing CXCR4-ADRB2 heteromer, were seeded in 6 well plates at a density of 5×10^5 cells per well. […] Thereafter, each of the sets of cells were harvested and performed western blotting analysis.
Cells were seeded in 6 well plates at a density of 5×10^5 cells per well. […] Thereafter, the cells were harvested using NP-40 lysis buffer (Thermo Fisher Scientific, #FNN0021) supplemented with phosphatase inhibitor cocktail (Roche, #4906845001) and protease inhibitor cocktail (Thermo Fisher Scientific, #A32953). Proteins of cell lysates concentrations were determined by the Bio-Rad protein assay (Bio-Rad, #5000006). 20 μg of protein samples were subjected to reducing SDS-PAGE and transferred to PVDF (Polyvinylidene difluoride) using dry transfer system (Thermo Fisher Scientific, #IB21001). The membranes were blocked with 5% skim milk (BD Difco, #232100) in Tris-Buffered Saline with 1% Tween-twenty for 1 hour and incubated with phospho-ERK1/2 Thr202/Tyr204 (Cell Signaling Technology, #4370) and total-ERK1/2 (Cell Signaling Technology, #4695) antibodies. Antigen-antibody complexes were detected by incubating with horseradish peroxidase coupled secondary antibodies (Cell Signaling Technology) followed by SuperSignal West Femto Maximum Sensitivity Substrate (Thermo Fisher Scientific, #34096). Western blot images were captured and analyzed by iBright Western Blot Imaging System (Thermo Fisher Scientific, #A32752).

[10] = system: ERK1/2; assay: Western blot of phospho-ERK1/2, A549 cell lines; type: cell-based, human; conditions: A549-CXCR4-ADRB2 cells; 10 nM each; 10 minutes
Description: Cells were seeded in 6 well plates at a density of 5×10^5 cells per well. […] Proteins of cell lysates concentrations were determined by the Bio-Rad protein assay (Bio-Rad, #5000006). 20 μg of protein samples were subjected to reducing SDS-PAGE and transferred to PVDF (Polyvinylidene difluoride) using dry transfer system (Thermo Fisher Scientific, #IB21001). […] Western blot images were captured and analyzed by iBright Western Blot Imaging System (Thermo Fisher Scientific, #A32752).

[11] = molecular target: T1, CXCR4-ADRB2 heteromer; assay: Internalization inhibition assay, CXCR4-GFP U-2 OS cells transduced with ADRB2; conditions: FIG. 8; CXCL12 20 nM or antagonist 10 μM; 20 minutes
Description: To further study if co-internalization of CXCR4 heterodimer was blocked by partner GPCRx antagonists, internalization inhibition assay was performed. […] If CXCR4 formed heterodimer with GPCRx and co-internalized by partner GPCRx, it can be blocked by GPCRx specific antagonist.
Here, the GPCRx evaluated was ADRB2.

[12] = molecular target: T3, ADRB2 (Homo sapiens, UniProt P07550); assay: Calcium mobilization assay, MDA-MB-231 cells transduced with ADRB2 only; type: cell-based; conditions: FIG. 5B; CXCL12 15 nM, salmeterol 100 nM
T3 construct: expressed in transfected cells; host or cells: MDA-MB-231 (adenoviral transduction)

T2 sequence (P61073 whole entry): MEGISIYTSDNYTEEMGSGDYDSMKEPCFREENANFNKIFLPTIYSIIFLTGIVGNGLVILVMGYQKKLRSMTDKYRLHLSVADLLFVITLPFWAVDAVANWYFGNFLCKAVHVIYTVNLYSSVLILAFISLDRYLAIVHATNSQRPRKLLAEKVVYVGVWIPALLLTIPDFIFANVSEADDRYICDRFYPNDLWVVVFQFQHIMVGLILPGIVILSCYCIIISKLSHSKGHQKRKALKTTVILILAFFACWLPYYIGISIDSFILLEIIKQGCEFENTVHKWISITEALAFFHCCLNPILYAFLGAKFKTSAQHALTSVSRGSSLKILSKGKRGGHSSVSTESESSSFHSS

NCCCCN(Cc1nc2ccccc2[nH]1)[C@H]1CCCc2cccnc21 [AMD070]
block of CXCL12 effect on cell proliferation [1]: blocked the CXCL12 effect | decrease of IC50 of Ca2+ response upon co-treatment of carvedilol, HL-60 [2]: about 12.7 fold | inhibition of tumor growth, co-administration with Carvedilol ([3]; AMD070 3 or 10 mg/kg with Carvedilol 30 mg/kg): effectively inhibited the growth of the tumor | suppression of tumor growth, single administration [3]: limited suppression of tumor growth

c1cc(CN2CCCNCCNCCCNCC2)ccc1CN1CCCNCCNCCCNCC1 [AMD3100, plerixafor]
block of CXCL12 effect on cell proliferation [1]: blocked the CXCL12 effect | decrease of IC50 of Ca2+ response upon co-treatment of carvedilol, HL-60 [2]: about 4.4 fold | decrease of IC50 of Ca2+ response upon co-treatment of carvedilol, U937 ([4]; Carvedilol 10 μM): about 6.4 fold | suppression of enhanced calcium signaling, co-administration with carvedilol ([5]; FIG. 6, AMD3100 10 μM with carvedilol 10 μM): greater suppression of the calcium signaling | decrease of IC50 of Ca2+ response upon co-administration of Carvedilol [5]: about 10.5 fold

N=C(N)NCCC[C@H](NC(=O)[C@@H]1CSSC[C@H](NC(=O)[C@H](Cc2ccc3ccccc3c2)NC(=O)[C@H](CCCNC(=N)N)NC(=O)[C@H](CCCNC(=N)N)NC(=O)c2ccc(F)cc2)C(=O)N[C@@H](Cc2ccc(O)cc2)C(=O)N[C@@H](CCCNC(N)=O)C(=O)N[C@@H](CCCCN)C(=O)N[C@H](CCCCN)C(=O)N2CCC[C@H]2C(=O)N[C@@H](Cc2ccc(O)cc2)C(=O)N[C@@H](CCCNC(=N)N)C(=O)N[C@@H](CCCNC(N)=O)C(=O)N1)C(N)=O [BKT140] ({Benzoyl(4-F)}-RR[2Nal]CY[Cit]K[dK]PYR[Cit]CR-NH2; disulfide 4-13)
block of CXCL12 effect on cell proliferation [1]: blocked the CXCL12 effect | IC50 ([6]; Table 4, cells expressing CXCR4 alone, CXCR4 inhibitor only, read-out: IC50 of Ca2+ response, CXCR4): 579 ± 204 nM | IC50 ([5]; CXCR4 + ADRB2 (+Carvedilol 600 nM), co-treated with Carvedilol 600 nM (its IC90)): 1.94 nM | IC50 ([5]; CXCR4 + ADRB2 (−Carvedilol 600 nM), CXCR4 inhibitor only): 88.7 nM | decrease of IC50 of Ca2+ response upon co-administration of Carvedilol [5]: about 45.7 fold

COc1ccccc1OCCNCC(O)COc1cccc2[nH]c3ccccc3c12 (centres unmarked) [Carvedilol]
IC50 [7]: 11700 nM | suppression of tumor growth, single administration [3]: limited suppression of tumor growth

CC(C)NCCCC[C@H](NC(=O)[C@H]1CCC(=O)N[C@@H](Cc2ccccc2)C(=O)N[C@@H](Cc2ccc(O)cc2)C(=O)N[C@@H](CCCCNC(C)C)C(=O)N[C@H](CCCNC(=N)N)C(=O)N[C@@H](Cc2ccc3ccccc3c2)C(=O)NCC(=O)N1)C(N)=O [LY2510924] (FY[Lys(iPr)][dR][2Nal]G[dE][Lys(iPr)]-NH2; lactam N-7)
death of mice [8]: 3 out of 10 | block of CXCL12 effect on cell proliferation [1]: blocked the CXCL12 effect

OCc1cc(C(O)CNCCCCCCOCCCCc2ccccc2)ccc1O (centres unmarked) [salmeterol, Salmeterol]
ERK1/2 activation, co-stimulation with CXCL12 and salmeterol ([9]; MDA-MB-231-CXCR4-ADRB2 cells, 10 nM each, 20 minutes): synergistically increased | ERK1/2 activation, single agonist [9]: induced ERK activation after 20 minutes | ERK1/2 phosphorylation, co-stimulation with CXCL12 and salmeterol [10]: significantly activated

CXCL12: C-X-C Motif Chemokine ligand 12, CXCR4 agonist
internalization of CXCR4-GFP with ADRB2, substance alone [11]: induced internalization of CXCR4-GFP with ADRB2 | ERK1/2 activation, single agonist [9]: induced activation of ERK1/2 after 10 minutes | increase of cell proliferation rate ([1]; CXCL12 100 nM): about 20% | calcium response, single agonist, cells expressing CXCR4 ([6]; FIG. 5A, CXCL12 15 nM, salmeterol 100 nM): evoked intracellular calcium mobilization | EC50 ([6]; read-out: EC50 concentration against CXCR4): ~15 nM | calcium response, single agonist, HL-60 ([2]; FIG. 26B, CXCL12 200 nM, formoterol 10 μM): evoked an intercellular calcium mobilization | calcium response, single agonist, cells overexpressing ADRB2 alone [12]: did not induced calcium response | calcium response, single agonist, U937 ([4]; FIG. 26A, CXCL12 200 nM, formoterol 10 μM): evoked an intercellular calcium mobilization
